Reference: US9296755B2, “3,4-dihydro-1H-pyrimido[1,6-a]pyrimidin-6(2H)-one compounds and their therapeutic applications” (GlaxoSmithKline Intellectual Property Development Limited, priority 2013, dated 2016)

What was measured:
[1] = tested on: proinflammatory (M1) and anti-inflammatory (M2) markers; test: Ex vivo analysis of M1 and M2 markers in macrophages of EAE rats by realtime PCR; parameters: species or system rat; conditions: splenic macrophages day 13 post MBP-immunization and CNS infiltrating macrophages
Method: Ex vivo analysis of proinflammatory (M1) and anti-inflammatory (M2) markers in control and compound treated EAE rats. Splenic macrophages were harvested at day 13 post MBP-immunization and assayed for expression of a variety of markers by realtime PCR. CNS infiltrating cells were harvested and macrophages were analyzed for expression of M1 and M2 markers by realtime PCR.

rat EAE model = test: Rat experimental autoimmune encephalomyelitis (EAE) model, preventive treatment; type: in vivo; conditions: MBP immunization, administered day 0 to day 22
Method: (§1) A further study was carried out to study the impact of Lp-PLA2 inhibitors on modulating M1/M2 imbalance. In this study, rats were induced to develop experimental autoimmune encephalomyelitis (EAE) by immunization with myelin basic protein (MBP) antigen and treated with a known Lp-PLA2 inhibitor: 5-((9-Methoxy-4-oxo-6,7-dihydro-4H-pyrimido[6,1-a]isoquinolin-2-yl)oxy)-2-(3-(trifluoromethyl)phenoxy)benzonitrile (See PCT application no. PCT/CN2011/001597). In this preventive treatment model, the compound was administered at day 0 (day of immunization) and continued to administer until day 22. The study lasted for 25 days. Rats were subsequently monitored for symptoms of EAE. Rats were immunized with MBP to develop EAE and symptoms were monitored daily. Plasma Lp-PLA2 activity, OxLDL, and LysoPC concentration were determined at different time points through the course of EAE.

Lp-PLA2 [2] = target: T1, Lp-PLA2 (Rattus norvegicus, UniProt A6JJ35); test: Plasma Lp-PLA2 activity and LysoPC in rat EAE plasma; type: in vivo
T1 construct: from tissue; host or cells: plasma of EAE rats
T1 sequence (A6JJ35 22-440): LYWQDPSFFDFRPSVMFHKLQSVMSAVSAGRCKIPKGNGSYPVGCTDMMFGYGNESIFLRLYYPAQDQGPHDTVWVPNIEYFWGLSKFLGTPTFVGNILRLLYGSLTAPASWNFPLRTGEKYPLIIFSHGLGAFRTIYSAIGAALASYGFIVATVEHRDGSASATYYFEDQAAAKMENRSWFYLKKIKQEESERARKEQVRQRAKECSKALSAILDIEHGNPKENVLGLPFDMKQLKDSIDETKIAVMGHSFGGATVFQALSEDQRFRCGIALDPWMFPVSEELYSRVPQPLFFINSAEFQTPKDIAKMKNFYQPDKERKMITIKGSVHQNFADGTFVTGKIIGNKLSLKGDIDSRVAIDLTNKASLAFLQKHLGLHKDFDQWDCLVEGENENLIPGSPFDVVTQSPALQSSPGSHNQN
Method: as §1

Lp-PLA2 [3] = test: as above; type: in vivo
Method: as §1

[4] = target: Recombinant human PLA2 VIIB (Homo sapiens, UniProt Q99487); test: PLA2 VIIB assay; type: biochemical
From the text: PLA2 VIIB (also known as Novel Serine Dependent Lipase, NSDL) is a serine hydrolase with 40% amino acid identity with human Lp-PLA2. Sequence comparisons indicate that the PLA VIIB active site catalytic triad positions are similar to those of Lp-PLA2. Similar to Lp-PLA2, it is capable of hydrolyzing oxidatively modified phospholipids and may be assayed using known Lp-PLA2 substrates.
Upon cleavage by a phopholipase, […] liberates a fluorescent Bodipy group. Recombinant human PLA2 VIIB is used as the phospholipase source in this assay, and compounds are screened to test their degree of inhibition in this assay. The assay is used to determine the degree of selectivity of the testing compounds between PLA2 VIIB and Lp-PLA2.
The PLA2 VIIB assay was applied as an unquenched 10 μL assay. The source plate containing the compounds is prepared by making 1:3 (by volume) serial dilution of the compounds with pure DMSO on 384-well microplate. 0.01 μL of compounds on the compound source plate were transferred into 384 well Greiner 784076 (black) plates by ECHO liquid dispenser. 5 μL of Novel Serine Dependent Lipase (NSDL) enzyme (5 nM NSDL in assay buffer of 50 mM HEPES, pH 7.4, 150 mM NaCl, 1 mM CHAPS) was added to each well. […] Plates were kinetic read by starting read immediately after PED6 addition at ex: 480/em:540 using ViewLux microplate reader or Envision spectrofluorimeters. […]

Row | Compound | M1 markers [1] | M2 markers [1] | clinical disease (EAE) (rat EAE model) | Lp-PLA2 activity in rat EAE plasma (Lp-PLA2 [2]) | LysoPC levels in rat EAE plasma (Lp-PLA2 [3]) | selectivity between human recombinant Lp-PLA2 and PLA2 VIIB [4] [fold]
1 | COc1ccc2c(c1)CCn1c-2cc(Oc2ccc(Oc3cccc(C(F)(F)F)c3)c(C#N)c2)nc1=O [5-((9-Methoxy-4-oxo-6,7-dihydro-4H-pyrimido[6,1-a]isoquinolin-2-yl)oxy)-2-(3-(trifluoromethyl)phenoxy)benzonitrile] | decrease | increase | reduction in clinical disease | decreased | decreased | 
2 | Cc1ccccc1CN1CCCn2c1cc(OCc1ccc(F)c(F)c1)nc2=O [Example E7, 8-((3,4-difluorobenzyl)oxy)-1-(2-methylbenzyl)-3,4-dihydro-1H-pyrimdo[1,6-a]pyrimidin-6(2H)-one] |  |  |  |  |  | ≤ 100
